Consider four substances from patent EP0568229A1, “Control of deposition of organic contaminants in pulp and papermaking systems” (BETZ EUROPE, INC., priority 1992, dated 1993).

For assay [1] the following is noted: for % Control: Table IV; for Percent Control of Pitch: Table VI. As to the method:
The slurry contained 0.5% bleached hardwood Kraft fiber, approximately 2000 parts per million of the potassium salt of a fatty acid blend, approximately 200 parts per million calcium from calcium chloride and approximately 300 parts per million sodium carbonate. The slurry was maintained at 50 °C and at a pH of 11.
It was stirred gently by an overhead stirrer and subjected to ultrasonic energy for 10 minutes. The deposit weight was determined by subtracting the starting weight of the pan from the weight of the pan plus the deposit after completion of the test. […] Studies of this type were conducted using hydrophobically modified associative polymers of the type described in this invention.

A short description of assay [2]: Stickie coupon peel strength test modified to examine the effect of dilution. Conditions: Concen. 50 ppm; for 1st Dilution: 30 minutes in distilled water after the initial immersion; for No Dilution: Table X. The source says: In order to establish the efficacy of the materials used in the present invention as deposition control agents, on plastic surfaces and specifically for adhesive contaminants of the sort found in recycled fiber, a laboratory test was devised utilizing adhesive-backed tapes as stickie coupons. The stickie coupon can be fabricated from any type of adhesive tape that will not disintegrate when placed in water. For the study, tapes made from a styrenebutadiene rubber and vinylic esters were used. Both of these potential organic contaminants are known to cause problems "stickies" in secondary fiber utilization. A second coupon was fabricated from polyester film such as the product marketed as MYLAR by the DuPont Chemical Company. This material was chosen because papermachine forming fabrics are frequently made of polyester which is susceptible to considerable problem caused by stickies.
500 mL of solutions in 600 mL beakers containing various deposit control agents are placed in a water bath heated to 50 °C. The tape and the polyester film coupons are placed in the test solution so the adhesive side of the coupon faces away from the polyester film coupon. After 1 hour of immersion, the adhesive side of the stickie coupon is placed in contact with the polyester coupon and pressed to 1000 pound force.
The average peel strength of the bond formed between the tape coupon and the polyester coupon was measured with an Instron tensile tester. The peel strength of the bond formed between the stickie tape coupon and the polyester coupon was interpreted as a measure of the tendency for an organic contaminant to attach to components of a paper-machine and cause runnability or product quality problems. More specifically, this indicates the tendency of a stickies deposit to form on a plastic surface.
Papermaking consists of various processes which can be affected by sudden changes in pH, temperature, dilution (i.e., concentration), shear force, etc. Severe changes in these parameters can cause system shock which adversely impact paper production. Deposit control agents that can strongly adsorb onto the organic contaminant surface and resist the desorbing effects of dilution are highly desirable. Not only will deposition control be improved, but also the required dosage will be reduced, while negative side effects, such as forming and wet-end interferences, will be reduced or eliminated. The procedure outlined in Table VIII was modified to examine the effect of dilution on deposition control. Dilution was accomplished by immersing the adhesive tape and MYLAR in distilled water for 30 minutes after the initial immersion. This can be repeated as many times as desired.

Where two headings read alike, the source gives them in different places.

Regarding “Nonyl Phenol Ethoxylate [Nonyl Phenol Ethoxylate (Surfonic N-95)]”, the figures for the “% Control” value in assay [1] (10 ppm) and in assay [1] (50 ppm) were 9% and 81%, respectively. In addition, the “Percent Control of Pitch” value in assay [1] (10 ppm) came out at 9%; in assay [1] (50 ppm), 81%.

Consider “octylphenoxy poly(ethyleneoxy)ethanol [Sample 1]”, for which, in assay [2], the “2nd Dilution” value amounted to 0, the “3rd Dilution” value is 0, the “4th Dilution” value is given as 0 and the “1st Dilution” value was found to be 5. Also, in assay [2], the “No Dilution” value turned out to be 100.

Consider nonylphenol ethoxylate [Sample 2], for which, in assay [2], the “2nd Dilution” value is recorded as 2, the “3rd Dilution” value was found to be 0, the “4th Dilution” value was 0 and the “1st Dilution” value turned out to be 8. The “No Dilution” value in assay [2] amounted to 100.

Take “dodecylphenoxypoly(ethyleneoxy) ethanol [Sample 3]”: in assay [2], the “2nd Dilution” value amounted to 16, the “3rd Dilution” value turned out to be 5, the “4th Dilution” value is reported as 0 and the “1st Dilution” value is 34. For the same substance, in assay [2], the “No Dilution” value was 100.
